Read-outs that look alike come from different tables or passages of the source. Each block holds one compound with its values, some of them ahead of it.
Tests used:
[1] = system: HEC-1-A PIK3CA-mutated endometrial cancer cell line; assay: CTG cell proliferation, HEC-1-A; format: cell-based; settings: read-out: Absolute IC50
Procedure: (§1) (2) Reagents • 1) FBS (fetal bovine serum) (purchased from ExCell, product number: FND500); • 2) McCoy's 5A medium (purchased from Gibco, product number: 12330-031); • 3) MEM medium (purchased from Hyclone, product number: SH30024.01). (3) Test Article and Positive Control Article • Test article: compound I; • Positive control article: Alpelisib, molecular weight: 441.47; solvent: DMSO; storage condition after dissolution: −20° C.; supplier: Shanghai TOPSCIENCE Biochemical Technology Co., Ltd., CAS number: 1217486-61-7; (4) The CTG Method was Used to Determine the Cell Proliferation IC50 of the Compound
(§2) Step 1: Cells in exponential growth phase were harvested, and viable cells were counted with a Vi-Cell XR cytometer. […]
(§3) Step 3: After 72 hours of drug treatment, 50 μL (½ culture volume) CTG solution that was melted and equilibrated to room temperature was added to each well according to the CTG operation instruction. […] After 10 minutes, the fluorescence signal value was measured with an Envision2104 plate reader.
(§4) Cell survival rate was calculated using the formula: Vsample/Vvehicle control×100%. Where, Vsample was the reading of the drug treatment group, and Vvehicle control was the average value of the solvent control group. GraphPad Prism 5.0 software was used, and a S-type dosage-survival rate curve was drawn using a nonlinear regression model and IC50 value was calculated.

[2] = system: PIK3CA-mutated cervical cancer cells; assay: CTG cell proliferation, cervical cancer cell lines; format: cell-based; settings: across PIK3CA-mutated cervical cancer cell lines, 72 hours, Alpelisib: in two cell lines, read-out: half inhibitory concentration
Excerpt: (2) Reagents • 1) FBS (fetal bovine serum) (purchased from ExCell, product number: FND500); • 2) RPMI1640 medium (purchased from Hyclone, product number: SH30809.01); • 3) McCoy's 5A medium (purchased from Gibco, product number: 12330-031); • 4) MEM medium (purchased from Hyclone, product number: SH30024.01; • 5) MEM NEAA (purchased from Gibco, product number: 11140-050); • 6) Sodium pyruvate (purchased from Gibco). […]
as §2, §3, §4

[3] = system: C-33A PIK3CA-mutated cervical cancer cell line; assay: CTG cell proliferation, C-33A; format: cell-based; settings: 72 hours, read-out: Absolute IC50
Excerpt: (§5) (2) Reagents • 1) FBS (fetal bovine serum) (purchased from ExCell, product number: FND500); • 2) RPMI1640 medium (purchased from Hyclone, product number: SH30809.01); • 3) McCoy's 5A medium (purchased from Gibco, product number: 12330-031); • 4) MEM medium (purchased from Hyclone, product number: SH30024.01; • 5) MEM NEAA (purchased from Gibco, product number: 11140-050); • 6) Sodium pyruvate (purchased from Gibco). (3) Test Article and Positive Control Article • Test article: compound I; Positive Control Article: • 1) Alpelisib, molecular weight: 441.47; solvent: DMSO; storage condition after dissolution: −20° C.; supplier: Shanghai TOPSCIENCE Biochemical Technology Co., Ltd., CAS number: 1217486-61-7; • 2) Cisplatin, molecular weight: 300.05; solvent: PBS (phosphate buffer saline); storage condition: 2-8° C.; supplier: Qilu Pharmaceutical. (4) The CTG Method was Used to Determine the Cell Proliferation IC50 of the Compound
(§6) Step 1: Cells in exponential growth phase were harvested, and viable cells were counted with a Vi-Cell XR cytometer. The cell suspension was adjusted to an appropriate concentration with medium. 90 μL of cell suspension was added to each well of a 96-well cell culture plate, and the final cell concentration was 1500-6000 cells/well. […]
as §3, §4

[4] = system: ME-180 PIK3CA-mutated cervical cancer cell line; assay: CTG cell proliferation, ME-180; format: cell-based; settings: ME-180, CTG, 72 hours, read-out: Absolute IC50
Excerpt: as §5, §6, §3, §4

[5] = system: HEC-1-B PIK3CA-mutated endometrial cancer cell line; assay: CTG cell proliferation, HEC-1-B; format: cell-based; settings: read-out: Absolute IC50
Procedure: as §1
(§7) Step 1: Cells in exponential growth phase were harvested, and viable cells were counted with a Vi-Cell XR cytometer. The cell suspension was adjusted to an appropriate concentration with medium. 90 μL of cell suspension was added to each well of a 96-well cell culture plate, and the final cell concentration was 1500-6000 cells/well.
Step 2: The initial concentration of administration of compound I and the control drug Alpelisib was 3 μM, serially diluted 3-fold, a total of 9 concentration gradients and a DMSO control, the final concentration of DMSO in each well was 0.1%, placed in a 37° C., 5% CO2 incubator for 72 hours.
(§8) Step 3: After 72 hours of drug treatment, 50 μL (½ culture volume) CTG solution that was melted and equilibrated to room temperature was added to each well according to the CTG operation instruction. The solution was mixed well with a microplate shaker for 2 minutes, and placed at room temperature. After 10 minutes, the fluorescence signal value was measured with an Envision2104 plate reader.
as §4

[6] = system: Ca Ski PIK3CA-mutated cervical cancer cell line; assay: CTG cell proliferation, Ca Ski; format: cell-based; settings: 72 hours, read-out: Absolute IC50
Excerpt: as §5, §6, §3, §4

[7] = system: BT-474 PIK3CA-mutated breast cancer cell line; assay: CTG cell proliferation, BT-474; format: cell-based, human; settings: BT-474, CTG, 72 hours; read-out: Absolute IC50
Excerpt: (§9) (2) Reagents • 1) FBS (fetal bovine serum) (purchased from ExCell, product number: FND500); • 2) DMEM medium (purchased from Gibco, product number: C11995500BT); • 3) Insulin (purchased from Gibco, product number: EPX010-12003-901); • 4) RPMI1640 medium (purchased from Hyclone, product number: SH30809.01); • 5) MEM medium (purchased from Hyclone, product number: SH30024.01). (3) Test Article and Positive Control Article • Test article: compound I; • Positive control article: Cisplatin, Molecular weight: 300.05; Solvent: PBS (phosphate buffer saline); Storage condition: 2-8° C.; Supplier: Qilu Pharmaceutical. (4) The CTG Method was Used to Determine the Cell Proliferation IC50 of the Compound.
as §7
(§10) Step 2: The initial concentration of administration of compound I was 3 μM, and the initial concentration of administration of the control drug Cisplatin was 100 μM, and serially diluted 3-fold, a total of 9 concentration gradients and a DMSO control, the final concentration of DMSO in each well was 0.1%, placed in a 37° C., 5% CO2 incubator for 72 hours.
as §3, §4

[8] = system: J82 PIK3CA-mutated bladder cancer cell line; assay: CTG cell proliferation, J82; format: cell-based; settings: 72 hours, read-out: Absolute IC50
Excerpt: (§11) (2) Reagents • 1) FBS (fetal bovine serum) (purchased from ExCell, product number: FND500); • 2) MEM medium (purchased from Hyclone, product number: SH30024.01; • 3) MEM NEAA (purchased from Gibco, product number: 11140-050); • 4) Sodium pyruvate (purchased from Gibco). […] (4) The CTG Method was Used to Determine the Cell Proliferation IC50 of the Compound
as §7, §8
(§12) Cell survival rate was calculated using the formula: Vsample/Vvehicle control×100%. Where, Vsample was the reading of the drug treatment group, and Vvehicle control was the average value of the solvent control group.

[9] = system: TCCSUP PIK3CA-mutated bladder cancer cell line; assay: CTG cell proliferation, TCCSUP; format: cell-based; settings: 72 hours, read-out: Absolute IC50
Excerpt: as §11, §7, §8, §12

[10] = system: T47D PIK3CA-mutated breast cancer cell line; assay: CTG cell proliferation, T47D; format: cell-based; settings: 72 hours, read-out: Absolute IC50
Excerpt: as §9, §7, §10, §3, §4

[11] = system: human breast cancer BT-474 subcutaneous xenograft tumor; assay: In vivo efficacy, BT-474 subcutaneous xenograft tumor model; set-up: species or system BALB/c nude mice; settings: for Tumor volume (Day 20): Mean ± SEM; for T/C / TGI: day 20
Procedure: Experimental purpose: Study the in vivo efficacy of the test drug on human breast cancer BT-474 subcutaneous xenograft tumor BALB/c nude mouse model.
(1) Cell culture: human breast cancer BT-474 cells were monolayer cultured in vitro. The culture conditions were that 10% fetal bovine serum, 100 U/ml penicillin (purchased from Gibco) and 100 μg/ml chain Mycin (purchased from Gibco) were added to Hybri-Care medium, and cultured at 37° C. and 5% CO2. Routine digestion and passage were performed with trypsin-EDTA (purchased from Gibco, product number: 25200-072) twice a week. When the cell saturation was 80%-90%, the cells are harvested, counted and inoculated.
(2) Animals: BALB/c nude mice, female, 6 weeks old, weighing 16-18 grams. Provided by Shanghai Sippe-Bk Lab Animal Co., Ltd.
(3) Control article: • Both PF05212384 and Everolimus were purchased from Shanghai TOPSCIENCE Biochemical Technology Co., Ltd.
(4) Tumor inoculation: 0.2 ml (1×10^7) BT-474 cells (matrigel was added, volume 1:1) were subcutaneously inoculated on the right back of each mouse, and the mice were divided into groups and administered with drugs when the average tumor volume reached 122 mm^3. See Table 10 below for the experimental grouping and dosing regimen.

[12] = 5 mg/kg, oral, once a day for 20 days, vs Solvent 2
[13] = 20 mg/kg, vein, once a week for 3 weeks, vs Solvent 1

IC50 ([1]; 72 hours): 2.46 µM
IC50 ([1]; Homo sapiens, 72 h): > 2 µM
IC50 [2]: > 3 µM
IC50 ([3]; Homo sapiens): > 3 µM
IC50 ([4]; Homo sapiens): 2.07 µM
IC50 ([5]; 72 hours): 2.41 µM
IC50 ([5]; Homo sapiens, HEC-1B, 72 h): > 2 µM
IC50 ([6]; Homo sapiens): > 3 µM
Compound: Cc1nc(NC(=O)N2CCC[C@H]2C(N)=O)sc1-c1ccnc(C(C)(C)C(F)(F)F)c1 [Alpelisib]

Compound: N.N.[Cl][Pt][Cl] [Cisplatin]
IC50 [7]: > 100 µM
IC50 [8]: 1.73 µM
IC50 [9]: 3.77 µM
IC50 [3]: 3.56 µM
IC50 [4]: 2.83 µM
IC50 [10]: 36.6 µM
IC50 [6]: 16.2 µM

Compound: CO[C@H]1C[C@@H]2CC[C@@H](C)[C@@](O)(O2)C(=O)C(=O)N2CCCC[C@H]2C(=O)O[C@H]([C@H](C)C[C@@H]2CC[C@@H](OCCO)[C@H](OC)C2)CC(=O)[C@H](C)/C=C(\C)[C@@H](O)[C@@H](OC)C(=O)[C@H](C)C[C@H](C)/C=C/C=C/C=C/1C [Everolimus, reference compound]
Tumor volume (Day 20) ([11]; 5 mg/kg, oral, once a day for 20 days): 82 ± 17 mm^3
T/C [11, 12]: 19%
TGI [11, 12]: 113%

Compound: CN(C)C1CCN(C(=O)c2ccc(NC(=O)Nc3ccc(-c4nc(N5CCOCC5)nc(N5CCOCC5)n4)cc3)cc2)CC1 [PF05212384, reference compound]
Tumor volume (Day 20) ([11]; 20 mg/kg, vein, once a week for 3 weeks): 49 ± 6 mm^3
T/C [11, 13]: 15%
TGI [11, 13]: 134%

Reference: US12622912B2, “Application of pyrido[1,2-a]pyrimidinone analog” (GUANGZHOU JOYO PHARMATECH CO., LTD, priority 2021, dated 2026)
